Measurements reported in patent publication US6737383B1, “Herbicidal oxadiazolidines” (priority 1999, dated 2004).

What was measured:
corn = test: Test B pre/postemergence corn; format: in vivo, Zea mays
Method in brief: (§1)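 Test chemicals in a non-phytotoxic solvent mixture with surfactant were sprayed preemergence onto planted seeds and postemergence onto plants 2 to 18 cm tall (1- to 4-leaf stage). After twelve to sixteen days in a greenhouse, injury was visually rated against untreated controls from 0 (no effect) to 10 (complete control).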

giant foxtail = test: Test B pre/postemergence giant foxtail; format: in vivo, Setaria faberii
Method in brief: as §1

wild oat = test: Test B pre/postemergence wild oat; format: in vivo, Avena fatua; conditions: for Plant response rating, Wild oats: Postemergence
Method in brief: as §1

bedstraw = test: Test B pre/postemergence bedstraw; format: in vivo, Galium aparine
Method in brief: as §1

soybean = test: Test B pre/postemergence soybean; format: in vivo, Glycine max; conditions: for Plant response rating, Soybean: Postemergence
Method in brief: as §1

sugar beet = test: Test B pre/postemergence sugar beet; format: in vivo, Beta vulgaris; conditions: for Plant response rating, Sugarbeets: Postemergence
Method in brief: as §1

morningglory = test: Test B pre/postemergence morningglory; format: in vivo, Ipomoea hederacea
Method in brief: as §1

purple nutsedge = test: Test B pre/postemergence purple nutsedge; format: in vivo, Cyperus rotundus
Method in brief: as §1

velvetleaf = test: Test B pre/postemergence velvetleaf; format: in vivo, Abutilon theophrasti; conditions: for Plant response rating, Velvetleaf: Postemergence
Method in brief: as §1

surinam grass = test: Test B pre/postemergence surinam grass; format: in vivo, Brachiaria decumbens
Method in brief: as §1

cocklebur = test: Test B pre/postemergence cocklebur; format: in vivo, Xanthium strumarium
Method in brief: as §1

wheat = test: Test B pre/postemergence wheat; format: in vivo, Triticum aestivum; conditions: for Plant response rating, Wheat: Postemergence
Method in brief: as §1

rape = test: Test B pre/postemergence rape; format: in vivo, Brassica napus
Method in brief: as §1

crabgrass = test: Test B pre/postemergence crabgrass; format: in vivo, Digitaria sanguinalis
Method in brief: as §1

blackgrass = test: Test B pre/postemergence blackgrass; format: in vivo, Alopecurus myosuroides
Method in brief: as §1

pigweed = test: Test B pre/postemergence pigweed; format: in vivo, Amaranthus retroflexus; conditions: for Plant response rating, Redroot pigweed: Postemergence
Method in brief: as §1

[1] = Postemergence, Rate 62 g/ha, scale of 0 to 10, 0 is no effect, 10 is complete control
[2] = Postemergence, Rate 125 g/ha, scale 0 to 10, 0 is no effect, 10 is complete control
[3] = Postemergence, Rate 500 g/ha, scale of 0 to 10 where 0 is no effect and 10 is complete control
[4] = Preemergence, Rate 62 g/ha, scale 0 to 10 (0 no effect, 10 complete control)
[5] = Preemergence, Rate 125 g/ha, scale of 0 to 10 where 0 is no effect and 10 is complete control
[6] = Preemergence, Rate 500 g/ha, scale of 0 to 10 where 0 is no effect and 10 is complete control
[7] = Rate 250 g/ha, Postemergence, scale of 0 to 10 where 0 is no effect and 10 is complete control
[8] = Rate 500 g/ha, scale of 0 to 10 where 0 is no effect and 10 is complete control
[9] = Rate 250 g/ha, scale of 0 to 10 where 0 is no effect and 10 is complete control

CC(C)N(C(=O)n1oc(=O)n(COCc2ccccc2)c1=O)c1ccccc1 [Compound 579]
2: Giant foxtail plant response rating (giant foxtail; [2]) | Plant response rating, B. signalgrass (surinam grass; [3]) | B. signalgrass plant response rating (0 to 10 scale, 0 is no effect, 10 is complete control) (surinam grass; Preemergence, Rate 250 g/ha) | Plant response rating, B. signalgrass (surinam grass; [7]) | Plant response rating, Blackgrass (blackgrass; [7]) | Redroot pigweed plant response rating (0 to 10 scale) (pigweed; Preemergence, Rate 250 g/ha)
4: Plant response rating, Soybean (soybean; [8])
0: Corn plant response rating (corn; [1]) | Corn plant response rating (corn; [2]) | Plant response rating, Corn (corn; [3]) | Corn plant response rating (corn; [4]) | Corn plant response rating (corn; [5]) | Corn plant response rating (0 to 10 scale) (corn; Preemergence, Rate 250 g/ha) | Plant response rating, Corn (corn; [7]) | Giant foxtail plant response rating (giant foxtail; [1]) | Plant response rating, Wild oats (wild oat; [8]) | Wild oats plant response rating (wild oat; [4]) | Wild oats plant response rating (wild oat; [5]) | Wild oats plant response rating (0 to 10 scale) (wild oat; Preemergence, Rate 250 g/ha) | Wild oats plant response rating (wild oat; [6]) | Plant response rating, Wild oats (wild oat; [9]) | Bedstraw plant response rating (bedstraw; [1]) | Bedstraw plant response rating (bedstraw; [2]) | Bedstraw plant response rating (bedstraw; [4]) | Bedstraw plant response rating (bedstraw; [5]) | Bedstraw plant response rating (0 to 10 scale) (bedstraw; Preemergence, Rate 250 g/ha) | Bedstraw plant response rating (bedstraw; [6]) | Soybean plant response rating (soybean; [4]) | Soybean plant response rating (soybean; [5]) | Soybean plant response rating (0 to 10 scale) (soybean; Preemergence, Rate 250 g/ha) | Soybean plant response rating (soybean; [6]) | Plant response rating, Sugarbeets (sugar beet; [8]) | Sugarbeets plant response rating (sugar beet; [4]) | Sugarbeets plant response rating (sugar beet; [5]) | Sugarbeets plant response rating (0 to 10 scale) (sugar beet; Preemergence, Rate 250 g/ha) | Sugarbeets plant response rating (sugar beet; [6]) | Plant response rating, Sugarbeets (sugar beet; [9]) | Morningglory plant response rating (morningglory; [4]) | Morningglory plant response rating (morningglory; [5]) | Morningglory plant response rating (0 to 10 scale) (morningglory; Preemergence, Rate 250 g/ha) | Morningglory plant response rating (morningglory; [6]) | Nutsedge plant response rating (purple nutsedge; [2]) | Nutsedge plant response rating (purple nutsedge; [4]) | Nutsedge plant response rating (purple nutsedge; [5]) | Nutsedge plant response rating (0 to 10 scale) (purple nutsedge; Preemergence, Rate 250 g/ha) | Plant response rating, Nutsedge (purple nutsedge; [7]) | Plant response rating, Velvetleaf (velvetleaf; [8]) | Velvetleaf plant response rating (velvetleaf; [4]) | Velvetleaf plant response rating (velvetleaf; [5]) | Velvetleaf plant response rating (0 to 10 scale) (velvetleaf; Preemergence, Rate 250 g/ha) | Velvetleaf plant response rating (velvetleaf; [6]) | Plant response rating, Velvetleaf (velvetleaf; [9]) | B. signalgrass plant response rating (surinam grass; [1]) | B. signalgrass plant response rating (surinam grass; [2]) | B. signalgrass plant response rating (surinam grass; [4]) | B. signalgrass plant response rating (surinam grass; [5]) | Cocklebur plant response rating (cocklebur; [1]) | Cocklebur plant response rating (cocklebur; [2]) | Plant response rating, Cocklebur (cocklebur; [3]) | Cocklebur plant response rating (cocklebur; [4]) | Cocklebur plant response rating (cocklebur; [5]) | Cocklebur plant response rating (0 to 10 scale) (cocklebur; Preemergence, Rate 250 g/ha) | Cocklebur plant response rating (cocklebur; [6]) | Plant response rating, Cocklebur (cocklebur; [7]) | Plant response rating, Wheat (wheat; [8]) | Wheat plant response rating (wheat; [4]) | Wheat plant response rating (wheat; [5]) | Wheat plant response rating (0 to 10 scale) (wheat; Preemergence, Rate 250 g/ha) | Wheat plant response rating (wheat; [6]) | Plant response rating, Wheat (wheat; [9]) | Rape plant response rating (rape; [1]) | Rape plant response rating (rape; [2]) | Rape plant response rating (rape; [4]) | Rape plant response rating (rape; [5]) | Rape plant response rating (0 to 10 scale) (rape; Preemergence, Rate 250 g/ha) | Rape plant response rating (rape; [6]) | Plant response rating, Rape (rape; [7]) | Crabgrass plant response rating (crabgrass; [1]) | Blackgrass plant response rating (blackgrass; [1]) | Blackgrass plant response rating (blackgrass; [2]) | Blackgrass plant response rating (blackgrass; [4]) | Blackgrass plant response rating (blackgrass; [5]) | Blackgrass plant response rating (0 to 10 scale) (blackgrass; Preemergence, Rate 250 g/ha) | Blackgrass plant response rating (blackgrass; [6]) | Redroot pigweed plant response rating (pigweed; [4]) | Redroot pigweed plant response rating (pigweed; [5]) | Plant response rating, Redroot pigweed (pigweed; [9])
6: Crabgrass plant response rating (crabgrass; [2]) | Plant response rating, Crabgrass (crabgrass; [7])
7: Plant response rating, Giant foxtail (giant foxtail; [3]) | Crabgrass plant response rating (crabgrass; [4]) | Crabgrass plant response rating (crabgrass; [5])
9: Giant foxtail plant response rating (giant foxtail; [5])
8: Giant foxtail plant response rating (giant foxtail; [4]) | Plant response rating, Crabgrass (crabgrass; [3])
5: Plant response rating, Giant foxtail (giant foxtail; [7]) | Plant response rating, Blackgrass (blackgrass; [3])
10: Giant foxtail plant response rating (0 to 10 scale) (giant foxtail; Preemergence, Rate 250 g/ha) | Giant foxtail plant response rating (giant foxtail; [6]) | Plant response rating, Bedstraw (bedstraw; [7]) | Morningglory plant response rating (morningglory; [1]) | Morningglory plant response rating (morningglory; [2]) | Plant response rating, Morningglory (morningglory; [3]) | Plant response rating, Morningglory (morningglory; [7]) | Crabgrass plant response rating (0 to 10 scale) (crabgrass; Preemergence, Rate 250 g/ha) | Crabgrass plant response rating (crabgrass; [6])
3: Corn plant response rating (corn; [6]) | Plant response rating, Soybean (soybean; [9]) | Nutsedge plant response rating (purple nutsedge; [6]) | B. signalgrass plant response rating (surinam grass; [6]) | Plant response rating, Rape (rape; [3]) | Plant response rating, Redroot pigweed (pigweed; [8]) | Redroot pigweed plant response rating (pigweed; [6])
